Source: US9469650B2, “Melampomagnolide B derivatives” (BOARD OF TRUSTEES OF THE UNIVERSITY OF ARKANSAS, priority 2013, dated 2016)
Read-outs that look alike come from different tables or passages of the source.

Key:
[1] = test system: OVCAR-4; assay: panel of 60 human tumor cell lines, growth inhibition (Ovarian Cancer); assay type: cell-based; details: OVCAR-4; for GI50 / IC (TGI) / CC50: Homo sapiens; for CC50: read-out: LC50 (the source's name)
[2] = test system: panel of 60 human tumor cell lines; assay: panel of 60 human tumor cell lines, whole panel or sub-panel (single concentration screen, summaries); assay type: cell-based; details: single concentration of 10^−5 M, read-out: growth inhibition in at least eight human cancer cell lines from the panel
[3] = test system: MALME-3M; assay: panel of 60 human tumor cell lines, growth inhibition (Melanoma); details: for GI50 / CC50: Homo sapiens, Malme-3M; for CC50: read-out: LC50; for TGI / Percent Growth: MALME-3M
[4] = test system: HL-60(TB); assay: cells; details: Homo sapiens; for GI50: HL-60; for CC50: HL-60, read-out: LC50; for IC (TGI): HL-60, read-out: TGI
[5] = test system: AML 052308 cells
From the text: Derivatives were screened for antileukemic activity against AML cells in culture (See FIGS. 1-7).

| SMILES | GI50 [1] [µM] | IC (TGI) [1] [µM] | CC50 [1] [µM] | inhibition at 10 µM [2] [%] | GI50 [3] [µM] | CC50 [3] [µM] | TGI [3] | Percent Growth ([3]; Log10 Concentration −4.0) [%] | Percent Growth ([3]; Log10 Concentration −5.0) [%] | Percent Growth ([3]; Log10 Concentration −6.0) [%] | Percent Growth ([3]; Log10 Concentration −7.0) [%] | Percent Growth ([3]; Log10 Concentration −8.0) [%] | GI50 [4] [µM] | CC50 [4] [µM] | IC (TGI) [4] [µM] | cytotoxicity compared to MMB [5] | GI50 ([1]; NCI five dose) [µM] | IC (TGI) ([1]; NCI five dose) [µM] | CC50 ([1]; NCI five dose) [µM] | also measured |
| --- | --- | --- | --- | --- | --- | --- | --- | --- | --- | --- | --- | --- | --- | --- | --- | --- | --- | --- | --- | --- |
| C=C1C(=O)O[C@H]2[C@H]1CC/C(COC(=O)NCCN1CCOCC1)=C\CC[C@@]1(C)O[C@@H]21 [JVM 57, ((1aR,7aS,10aS,10bS,E)-1a-methyl-8-methylene-9-oxo-1a,2,3,6,7,7a,8,9,10a,10b-decahydrooxireno[2′,3′:9,10]-cyclodeca[1,2-b]furan-5-yl)-methyl(2-morpholinoethyl)carbamate] | 10.1 | 25.3 | 63.4 | > 60 | 6.12 | 63.2 | 2.19E−5 | −72 | 37 | 97 | 91 | 100 | 3.59 | 85.1 | 16.1 | less active than MMB |  |  |  |  |
| C=C1C(=O)O[C@H]2[C@H]1CC/C(COC(=O)OCCN(C)C)=C\CC[C@@]1(C)O[C@@H]21 [JVM 2-35] |  |  |  | > 60 |  |  |  |  |  |  |  |  | 1.77 | 87 | 6.4 |  | 5.04 | 18.6 | 44.6 |  |
| C=C1C(=O)O[C@H]2[C@H]1CC/C(COC(=O)NCCc1ccccn1)=C\CC[C@@]1(C)O[C@@H]21 [JVM 61, ((1aR,7aS,10aS,10bS,E)-1a-methyl-8-methylene-9-oxo-1a,2,3,6,7,7a,8,9,10a,10b-decahydrooxireno[2′,3′:9,10]cyclodeca[1,2-b]furan-5-yl)methyl-(2-(pyridin-2-yl)ethyl)carbamate] | 7.17 | 24.6 | 72.3 | > 60 | 7.52 | 84.9 | 2.71E−5 | −57 | 44 | 95 | 100 | 114 |  |  |  | almost equal cytotoxicity to MMB |  |  |  | Percent Growth ([1]; Log10 Concentration −4.0): −65%; Percent Growth ([1]; Log10 Concentration −5.0): 42%; Percent Growth ([1]; Log10 Concentration −6.0): 99%; Percent Growth ([1]; Log10 Concentration −7.0): 96%; Percent Growth ([1]; Log10 Concentration −8.0): 103% |
| C=C1C(=O)O[C@H]2[C@H]1CC/C(COC(=O)NCCCCCCO)=C\CC[C@@]1(C)O[C@@H]21 [JVM 2-31] |  |  |  | > 60 |  |  |  |  |  |  |  |  | 3.64 | > 100 | 14.2 |  | 4.01 | 19.4 | 65.1 |  |
| C=C1C(=O)O[C@H]2[C@H]1CC/C(COC(=S)n1ccnc1)=C\CC[C@@]1(C)O[C@@H]21 [JVM 66] |  |  |  | > 60 | 14.5 | > 100 |  | −32 | 66 | 107 | 95 | 94 | 4.05 | 69.5 | 16.2 | more potent than MMB | 19.8 | 90.9 | > 100 | TGI ([3]; NCI five dose): 4.74E−5; fold more cytotoxic than MMB [5]: about 6 fold; fold more potent than parthenolide ([5]; AML 052308 cells): 3 fold |
